Results reported in patent US6406917B1, “Methods and compositions for the use of apurinic/apyrimidinic endonucleases” (Advanced Research And Technology Institute, priority 1996, dated 2002).

Assays:
Assay type in all cases: cell-based, human
[1] = system: HL-60-bcl-2 cells; experiment: Northern blot of APE mRNA after differentiation induction; settings: 10^-5 M RA, 1.25% DMSO or 100 nM PMA
Protocol: (§1) FIG. 7A and FIG. 7B: Expression of APE in HL-60-bcl-2 cells. FIG. 7A, HL-60-bcl-2 cells at 0, 2, 4, and 6 days after treatment with 10^−5 M RA or 1.25% DMSO, Western blot (top) probed with an affinity purified polyclonal rabbit anti-APE antibody. Northern blots (middle and bottom) probed for the 1.6 Kb APE and GAPDH transcripts. FIG. 7B, HL-60-bcl-2 cells treated with 100 nM PMA.
(§2) To ascertain whether APE expression was associated with differentiation or programmed cell death, the inventor blocked apoptosis by over-expression of the proto-oncogene bcl-2 using HL-60 cells transduced with the retroviral construct LbcI2SN (Park et al, 1994). […] The apparent decrease in APE transcript expression after 6 days exposure to RA or DMSO results from loading differences as evidenced by the GAPDH Northern control blot (FIG. 7). […] Thus constitutive expression of bcl-2 inhibits the decrease in APE expression as well as programmed cell death normally observed with granulocytic or monocytic/macrophage induced differentiation of HL-60 cells.

[2] = system: HL-60 cells; experiment: Western blot of APE protein expression after differentiation induction
Protocol: (§3) FIG. 6A and FIG. 6B: Expression of APE in HL-60 cells. FIG. 6A, HL-60 cells at 0, 2, 4, and 6 days after treatment with 10^−5 M RA or 1.25% DMSO, Western blot (top) probed with an affinity purified polyclonal rabbit anti-APE antibody which detects the 37,000 Daltons human APE. Northern blots (middle and bottom) probed for the 1.6 Kb APE mRNA and GAPDH transcripts. FIG. 6B, HL-60 cells treated with 100 nM PMA.
Western blot analysis was performed as has been previously described (Wilson et al., 1994; 1995, FIG. 16). Whole cell extracts were electrophoresed on a 12% SDS-PAGE and electroblotted onto 0.2 micron nitrocellulose. The filter was incubated in blocking buffer which contains 5% non-fat milk for 1 hour. Next, the antibody (affinity purified APE) was diluted to the appropriate concentration (1:100) and incubated with the filter overnight at 4° C. The filter was washed in 1×TBST and incubated in TBST containing 5% milk and cross-reacting proteins were detected using the Chemiluminescence Western Blotting Kit from Boehringer-Mannheim (Indianapolis, Ind.) as directed. Western blot analysis of HeLa cell (human) or NIH3T3 (mouse) cells using antibody produced in rabbits or chickens are shown in FIG. 16. The antibodies were affinity purified and only a single cross-reacting protein is visible in the human or mouse cells. […]

[3] = system: HL-60 cells; experiment: DNA fragmentation / apoptosis, fluorescein TUNEL assay; settings: for % fluorescein positive (TUNEL): HL-60 + DMSO
Excerpt: Over-expression of bcl-2 depresses the baseline apoptosis to less than 1% (FIG. 8). […] The high level expression of bcl-2 in HL-60-bcl-2 cells appears to be responsible for not only the block in apoptosis (Park et al., 1994), but also the failure to downregulate expression of APE with induction of differentiation. […] This leads to the conclusion that the decrease in expression of APE observed on Northern and Western blot (FIG. 6) in induced HL-60 cells is associated with programmed cell death.
(§4) To determine if the cells undergoing apoptosis were also the cells downregulating APE, double labeling experiments were performed on a 50:50 mix of untreated and RA treated (6 days, 10^−5 M) HL-60 cells (FIG. 9A). Cytocentrifuge preparations were stained for 1) fragmented DNA using fluorescein-dUTP in the TUNEL assay (FIG. 9C) and 2) APE using polyclonal rabbit anti-APE with a rhodamine labeled goat anti-rabbit secondary antibody (FIG. 9B). Cells undergoing apoptosis fluoresce ‘green’ and cells expressing APE fluoresce ‘red’. […] Conversely, TUNEL negative cells, not undergoing apoptosis, stained strongly positive for APE. Thus, HL-60 cells undergoing apoptosis appear to lose expression of APE.
(§5) The inventor further characterized the temporal decline in APE expression to see if it was an early event in programmed cell death or if the decline coincided with fragmentation of DNA (TUNEL assay); the inventor assayed APE expression and DNA fragmentation on cytospun preparations of cells after exposure to DMSO. The expression of APE started to fall with fewer rhodamine positive cells after 2 days of DMSO while statistically significant evidence of fragmented DNA was not apparent until after 4-6 days (Table 7, FIG. 8). A similar pattern was observed, but not as rapid a loss of APE expression, after exposure to RA or PMA. Thus the decrease in APE expression associated with programmed cell death appears to be an early event occurring before the final pathologic consequences of DNA fragmentation in apoptosis.

[4] = system: HL-60-bcl-2 cells; experiment: Western blot of APE protein expression after differentiation induction; settings: 10^-5 M RA, 1.25% DMSO or 100 nM PMA, compared to parental HL-60
Protocol: as §1, §2

[5] = system: HL-60 cells; experiment: Northern blot of APE transcript after differentiation induction
Protocol: as §3
To investigate possible changes in expression of the DNA repair enzyme APE in differenntiating myeloid cells, the inventor utilized Northern and Western blot analysis with the HL-60 myeloid leukemia cell line, which can be induced to terminally differentiate into mature granulocytes or monocyte/macrophage (Collins, 1987). […] To determine whether the decrease in APE expression was confined to granulocytic differentiation, HL-60 cells were induced down the monocyte/macrophage pathway with PMA.

[6] = system: HL-60 cells; experiment: APE expression on cytospun cells, rhodamine-labeled anti-APE staining; settings: for % rhodamine positive (APE): HL-60 + DMSO
Protocol: as §4, §5

[7] = system: HL-60 cells; experiment: RA-induced differentiation (morphology, CD11b, NBT reduction)
[8] = system: HL-60-bcl-2 cells; experiment: Viability of RA-induced granulocytes (trypan blue dye exclusion); settings: HL-60+Lbcl2SN cells treated with RA, compared to parental HL-60 cells
Protocol: FIG. 10A and FIG. 10B: Enhanced viability of HL-60-bcl-2 granulocytes. HL60 and HL-60-bcl-2 cells were induced with RA (1 μmol/L) which was added at day 0. At the indicated days after RA treatment (FIG. 10A), cell number was determined using a hemocytometer chamber and (FIG. 10B) percentage of cell viability was determined by trypan blue dye exclusion. The indicated points represent the mean of triplicate experiments (▴) HL-60 wt; (◯) HL-60 Bcl2.
To determine whether cell differentiation and apoptosis were closely linked processes that could not be separated, the inventor over expressed the proto-oncogene bcl-2 in HL-60 cells to block apoptosis the 1.9 kB cDNA of bcl-2 was subcloned into the retroviral vector LXSN to produce Lbcl2SN. The ecotropic packaging cell line PE501 was transfected and used to transduce the amphotropic packaging cell line PA317. High titer clones of PA317+Lbcl2SN were selected for transduction of HL-60 cells to produce HL-60+Lbcl2SN. Several clones were screened by Northern blot analysis and one clone with high bcl-2 expression was chosen for study. […] These cells were assayed for programmed cell death using the TUNEL reaction to score individual cells and the diphenylamine assay to determine the total amount of DNA undergoing fragmentation. […] Thus myeloid cell differentiation and apoptosis are independent processes that can be separated.

[9] = system: HL-60-bcl-2 cells; experiment: RA-induced differentiation (morphology, CD11b, NBT reduction)
[10] = after 1 hour of TPA stimulation
[11] = arbitrary log scale 0 to 200, 18.5 U = doubling

SMILES | APE mRNA expression (Northern blot) [1] | APE protein expression (Western blot) ([2]; 10^-5 M RA or 1.25% DMSO, over 6 days, compared to ethanol treated controls) | % fluorescein positive (TUNEL) ([3]; 2 days) | % fluorescein positive (TUNEL) ([3]; 4 days) | % fluorescein positive (TUNEL) ([3]; 6 days) | time after which statistically significant evidence of fragmented DNA became apparent ([3]; HL-60, DMSO) | APE protein expression (Western blot) [4] | APE transcript expression (Northern blot) ([5]; granulocytic induction with 10^-5 M RA or 1.25% DMSO, 0-6 days) | % rhodamine positive (APE) ([6]; 2 days) | % rhodamine positive (APE) ([6]; 4 days) | time after which expression of APE started to fall (fewer rhodamine positive cells) ([6]; HL-60, DMSO) | APE protein expression (Western blot) ([2]; 100 nM PMA, after two days exposure) | APE transcript expression (Northern blot) ([5]; 100 nM PMA) | NBT (+), percentage of cells containing blue-black formazan deposits [7, 10] | CD11b (+), relative mean fluorescence [7, 11] | survival of mature granulocytes [8] | NBT (+), percentage of cells containing blue-black formazan deposits [9, 10] | CD11b (+), relative mean fluorescence [9, 11]
C[S+](C)[O-] [DMSO] | similarly maintained | nearly undectable | 2.7% | 2.3% | 7% | 4 to 6 days | continuous expression | more rapid decrease to a lower level | 34% | 0% | 2 days |  |  |  |  |  |  | 
CCCCCCCCCCCCCC(=O)O[C@@H]1[C@@H](C)[C@@]2(O)[C@@H](C=C(CO)C[C@]3(O)C(=O)C(C)=C[C@@H]23)[C@@H]2C(C)(C)[C@]12OC(C)=O [PMA] | continuous expression |  |  |  |  |  | continuous expression |  |  |  |  | decreased to a very low level | Decreased expression |  |  |  |  | 
CC1=C(/C=C/C(C)=C/C=C/C(C)=C/C(=O)O)C(C)(C)CCC1 [RA, Retinoic Acid] |  |  |  |  |  |  |  |  |  |  |  |  |  | >90% | 105.4 U | up to 40 days | >90% | 107.9 U
